Data as given in the kinase profiling compilation of Christmann-Franck et al. (2016).

Experiments:
Assay in all cases: KINOMEscan competition binding
Details in all cases: compound 10.0 µM
[1] = target: ABL1 (human) (UniProt P00519)
[2] = test system: ABL1 (human), P00519 [H396P]
[3] = target: ALK (human) (UniProt Q9UM73)
[4] = target: CDC2L2 (human) (UniProt Q9UQ88)
[5] = target: CDC42BPG (human) (UniProt Q6DT37)
[6] = target: CDK15 (human) (UniProt Q96Q40)
[7] = target: CDK7 (human) (UniProt P50613)
[8] = target: CIT (human) (UniProt O14578)
[9] = target: CSNK2A1 (human) (UniProt P68400)
[10] = target: CSNK2A2 (human) (UniProt P19784)
[11] = target: EGFR (human) (UniProt P00533)
[12] = target: ERBB3 (human) (UniProt P21860)
[13] = target: ERBB4 (human) (UniProt Q15303)
[14] = target: FLT1 (human) (UniProt P17948)
[15] = target: JAK1 JH2 pseudokinase (human) (UniProt P23458)
[16] = target: JAK2 JH1 catalytic (human) (UniProt O60674)
[17] = target: LTK (human) (UniProt P29376)
Chain of LTK (human) (P29376 whole entry, looked up): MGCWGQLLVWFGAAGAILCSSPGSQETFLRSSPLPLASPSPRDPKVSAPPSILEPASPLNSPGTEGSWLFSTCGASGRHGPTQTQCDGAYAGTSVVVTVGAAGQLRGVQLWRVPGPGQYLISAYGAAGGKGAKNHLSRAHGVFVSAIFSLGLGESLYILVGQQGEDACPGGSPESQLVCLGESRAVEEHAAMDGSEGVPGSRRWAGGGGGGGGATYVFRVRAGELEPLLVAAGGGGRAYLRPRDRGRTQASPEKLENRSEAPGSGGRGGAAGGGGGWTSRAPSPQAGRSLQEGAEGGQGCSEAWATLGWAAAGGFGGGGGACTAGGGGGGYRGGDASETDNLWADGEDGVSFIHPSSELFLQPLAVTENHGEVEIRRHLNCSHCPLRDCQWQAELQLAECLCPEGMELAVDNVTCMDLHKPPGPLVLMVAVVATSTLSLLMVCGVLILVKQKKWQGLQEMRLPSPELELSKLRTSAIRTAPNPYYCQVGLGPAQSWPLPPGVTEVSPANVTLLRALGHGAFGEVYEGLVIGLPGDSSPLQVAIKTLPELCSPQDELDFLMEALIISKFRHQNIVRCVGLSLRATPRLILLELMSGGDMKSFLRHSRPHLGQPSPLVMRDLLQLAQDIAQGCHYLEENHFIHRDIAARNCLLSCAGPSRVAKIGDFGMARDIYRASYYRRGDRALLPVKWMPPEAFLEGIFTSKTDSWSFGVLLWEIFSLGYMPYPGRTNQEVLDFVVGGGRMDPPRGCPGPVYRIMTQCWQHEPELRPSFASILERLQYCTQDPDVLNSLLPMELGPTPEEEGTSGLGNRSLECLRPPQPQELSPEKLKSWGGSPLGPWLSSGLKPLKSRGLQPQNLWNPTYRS

[18] = target: MAP3K11 (human) (UniProt Q16584)
[19] = target: MAPK11 (human) (UniProt Q15759)
Chain of MAPK11 (human) (Q15759 whole entry, looked up): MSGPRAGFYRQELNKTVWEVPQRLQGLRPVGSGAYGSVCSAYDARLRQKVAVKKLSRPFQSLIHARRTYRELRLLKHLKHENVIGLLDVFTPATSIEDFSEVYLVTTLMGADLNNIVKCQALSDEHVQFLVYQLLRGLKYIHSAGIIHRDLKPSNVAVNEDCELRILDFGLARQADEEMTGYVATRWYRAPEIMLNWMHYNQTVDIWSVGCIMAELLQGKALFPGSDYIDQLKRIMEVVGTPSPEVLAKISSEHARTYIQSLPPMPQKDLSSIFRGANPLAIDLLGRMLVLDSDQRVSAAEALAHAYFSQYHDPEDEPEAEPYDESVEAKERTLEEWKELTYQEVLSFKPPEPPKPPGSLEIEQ

[20] = target: MAPK15 (human) (UniProt Q8TD08)
Chain of MAPK15 (human) (Q8TD08 whole entry, looked up): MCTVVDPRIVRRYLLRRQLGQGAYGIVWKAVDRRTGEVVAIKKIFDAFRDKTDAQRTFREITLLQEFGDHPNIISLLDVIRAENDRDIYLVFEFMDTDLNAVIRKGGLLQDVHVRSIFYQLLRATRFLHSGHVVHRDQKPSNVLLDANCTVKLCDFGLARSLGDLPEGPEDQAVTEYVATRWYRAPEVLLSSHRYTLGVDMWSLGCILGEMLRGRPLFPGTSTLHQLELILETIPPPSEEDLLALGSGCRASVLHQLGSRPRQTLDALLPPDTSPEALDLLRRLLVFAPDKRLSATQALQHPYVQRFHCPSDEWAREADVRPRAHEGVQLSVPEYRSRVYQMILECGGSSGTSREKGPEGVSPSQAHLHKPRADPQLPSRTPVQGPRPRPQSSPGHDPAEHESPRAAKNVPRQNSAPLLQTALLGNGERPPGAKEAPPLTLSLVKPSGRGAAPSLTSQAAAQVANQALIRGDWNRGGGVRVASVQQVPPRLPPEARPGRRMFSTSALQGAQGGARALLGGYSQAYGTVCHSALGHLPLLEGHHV

[21] = target: MAPK3 (human) (UniProt P27361)
[22] = target: MAPK6 (human) (UniProt Q16659)
Chain of MAPK6 (human) (Q16659 whole entry, looked up): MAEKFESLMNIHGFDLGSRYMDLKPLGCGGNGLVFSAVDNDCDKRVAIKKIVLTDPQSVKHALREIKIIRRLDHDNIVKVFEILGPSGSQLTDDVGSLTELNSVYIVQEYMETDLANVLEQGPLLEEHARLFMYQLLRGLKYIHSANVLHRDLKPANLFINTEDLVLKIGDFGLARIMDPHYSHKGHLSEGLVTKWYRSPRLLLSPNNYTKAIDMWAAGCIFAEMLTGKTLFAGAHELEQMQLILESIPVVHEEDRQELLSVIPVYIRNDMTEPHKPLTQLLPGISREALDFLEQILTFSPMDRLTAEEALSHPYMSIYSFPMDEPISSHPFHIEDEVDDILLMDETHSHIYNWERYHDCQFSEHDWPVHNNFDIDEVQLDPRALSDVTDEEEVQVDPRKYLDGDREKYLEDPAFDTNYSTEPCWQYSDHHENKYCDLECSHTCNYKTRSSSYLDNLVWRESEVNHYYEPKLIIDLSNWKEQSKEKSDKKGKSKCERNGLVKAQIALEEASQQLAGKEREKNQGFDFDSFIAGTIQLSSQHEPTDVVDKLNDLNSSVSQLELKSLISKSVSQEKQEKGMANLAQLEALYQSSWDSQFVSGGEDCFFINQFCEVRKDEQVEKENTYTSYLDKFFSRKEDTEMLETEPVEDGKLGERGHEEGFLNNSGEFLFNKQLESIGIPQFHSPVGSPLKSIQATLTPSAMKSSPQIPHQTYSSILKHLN

[23] = target: MAPKAPK5 (human) (UniProt Q8IW41)
[24] = target: NEK6 (human) (UniProt Q9HC98)
[25] = target: NEK7 (human) (UniProt Q8TDX7)
Chain of NEK7 (human) (Q8TDX7 whole entry, looked up): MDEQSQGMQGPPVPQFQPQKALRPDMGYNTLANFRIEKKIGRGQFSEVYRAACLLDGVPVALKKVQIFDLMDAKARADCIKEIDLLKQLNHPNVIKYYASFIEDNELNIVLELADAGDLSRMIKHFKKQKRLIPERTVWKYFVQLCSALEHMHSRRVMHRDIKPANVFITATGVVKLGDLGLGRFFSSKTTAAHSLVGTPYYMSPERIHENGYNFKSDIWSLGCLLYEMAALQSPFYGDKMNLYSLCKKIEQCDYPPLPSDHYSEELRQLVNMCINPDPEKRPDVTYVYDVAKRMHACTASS

[26] = target: NTRK1 (human) (UniProt P04629)
[27] = target: NTRK3 (human) (UniProt Q16288)
[28] = target: PAK1 (human) (UniProt Q13153)
[29] = target: PKMYT1 (human) (UniProt Q99640)
[30] = target: PLK2 (human) (UniProt Q9NYY3)
Chain of PLK2 (human) (Q9NYY3 whole entry, looked up): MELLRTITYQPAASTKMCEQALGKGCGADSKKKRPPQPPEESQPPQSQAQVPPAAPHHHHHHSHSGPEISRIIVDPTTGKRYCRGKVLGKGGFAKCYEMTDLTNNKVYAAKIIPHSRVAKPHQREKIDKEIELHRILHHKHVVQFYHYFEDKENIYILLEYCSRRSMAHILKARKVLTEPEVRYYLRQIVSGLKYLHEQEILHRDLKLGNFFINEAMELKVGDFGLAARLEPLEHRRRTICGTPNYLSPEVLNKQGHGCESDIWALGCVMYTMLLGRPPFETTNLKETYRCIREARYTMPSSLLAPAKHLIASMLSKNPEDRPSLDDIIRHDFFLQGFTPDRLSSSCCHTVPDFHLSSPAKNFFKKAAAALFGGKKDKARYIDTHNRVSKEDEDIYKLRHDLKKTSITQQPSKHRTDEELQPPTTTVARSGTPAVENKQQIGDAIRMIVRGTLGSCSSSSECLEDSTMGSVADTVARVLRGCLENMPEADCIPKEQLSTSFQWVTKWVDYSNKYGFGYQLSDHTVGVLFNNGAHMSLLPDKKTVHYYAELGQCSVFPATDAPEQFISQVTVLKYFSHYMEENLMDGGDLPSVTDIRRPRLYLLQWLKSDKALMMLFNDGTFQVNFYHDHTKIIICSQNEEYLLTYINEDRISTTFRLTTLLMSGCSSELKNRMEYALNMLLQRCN

[31] = target: RPS6KA1 KD1 (human) (UniProt Q15418)
Chain of RPS6KA1 KD1 (human) (Q15418 whole entry, looked up): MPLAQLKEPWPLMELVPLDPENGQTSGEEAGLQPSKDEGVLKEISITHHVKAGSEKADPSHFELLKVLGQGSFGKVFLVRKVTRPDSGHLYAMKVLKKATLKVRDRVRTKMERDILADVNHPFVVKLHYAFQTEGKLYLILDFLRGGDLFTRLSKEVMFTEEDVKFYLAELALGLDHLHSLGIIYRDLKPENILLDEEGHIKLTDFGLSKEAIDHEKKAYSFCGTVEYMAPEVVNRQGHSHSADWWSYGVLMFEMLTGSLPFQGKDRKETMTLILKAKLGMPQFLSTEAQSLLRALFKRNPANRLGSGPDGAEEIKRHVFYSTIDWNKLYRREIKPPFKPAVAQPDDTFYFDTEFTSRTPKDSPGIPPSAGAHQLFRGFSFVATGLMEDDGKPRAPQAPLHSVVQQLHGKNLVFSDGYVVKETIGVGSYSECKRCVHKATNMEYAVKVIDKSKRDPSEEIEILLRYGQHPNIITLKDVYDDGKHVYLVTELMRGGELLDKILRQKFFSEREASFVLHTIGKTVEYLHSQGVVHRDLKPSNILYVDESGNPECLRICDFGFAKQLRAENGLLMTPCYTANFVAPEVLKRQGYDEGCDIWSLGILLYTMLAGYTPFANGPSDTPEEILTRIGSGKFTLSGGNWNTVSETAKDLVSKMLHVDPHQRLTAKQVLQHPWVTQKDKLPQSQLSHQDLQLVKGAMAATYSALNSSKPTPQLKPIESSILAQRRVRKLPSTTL

[32] = target: RPS6KA4 KD1 (human) (UniProt O75676)
[33] = target: RPS6KA5 KD2 (human) (UniProt O75582)
[34] = target: STK17B (human) (UniProt O94768)
Chain of STK17B (human) (O94768 whole entry, looked up): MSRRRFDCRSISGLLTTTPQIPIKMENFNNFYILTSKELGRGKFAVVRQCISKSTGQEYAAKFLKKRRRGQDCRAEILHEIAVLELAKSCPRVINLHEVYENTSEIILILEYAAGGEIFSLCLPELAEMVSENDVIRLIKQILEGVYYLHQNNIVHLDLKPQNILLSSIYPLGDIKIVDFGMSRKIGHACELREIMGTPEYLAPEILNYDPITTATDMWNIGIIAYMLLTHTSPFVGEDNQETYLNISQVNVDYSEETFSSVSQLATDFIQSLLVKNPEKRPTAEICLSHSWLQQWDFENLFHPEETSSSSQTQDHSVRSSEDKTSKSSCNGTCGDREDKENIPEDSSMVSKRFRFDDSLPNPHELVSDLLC

[35] = target: STK4 (human) (UniProt Q13043)
[36] = target: SYK (human) (UniProt P43405)
[37] = target: BUB1 (human) (UniProt O43683)
[38] = test system: EGFR (human), P00533 [T790M]
[39] = target: GSG2 (human) (UniProt Q8TF76)
[40] = target: SGK1 (human) (UniProt O00141)

Chain of CDK15 (human) (Q96Q40 whole entry, looked up): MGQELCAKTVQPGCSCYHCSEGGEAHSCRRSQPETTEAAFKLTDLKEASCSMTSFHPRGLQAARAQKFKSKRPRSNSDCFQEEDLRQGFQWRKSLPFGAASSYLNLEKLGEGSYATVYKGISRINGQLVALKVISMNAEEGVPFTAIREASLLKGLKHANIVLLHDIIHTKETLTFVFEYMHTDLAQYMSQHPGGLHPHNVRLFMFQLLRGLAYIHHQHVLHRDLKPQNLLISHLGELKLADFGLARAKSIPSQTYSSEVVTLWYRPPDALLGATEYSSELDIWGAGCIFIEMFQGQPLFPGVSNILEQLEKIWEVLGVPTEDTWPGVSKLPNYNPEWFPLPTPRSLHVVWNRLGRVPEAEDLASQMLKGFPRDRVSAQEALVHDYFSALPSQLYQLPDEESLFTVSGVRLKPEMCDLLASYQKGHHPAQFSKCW

kinase still bound, per cent of control [3] | kinase still bound, per cent of control [4] | kinase still bound, per cent of control [5] | kinase still bound, per cent of control [6] | kinase still bound, per cent of control [7] | kinase still bound, per cent of control [8] | kinase still bound, per cent of control [9] | kinase still bound, per cent of control [10] | kinase still bound, per cent of control [11] | kinase still bound, per cent of control [12] | kinase still bound, per cent of control [13] | kinase still bound, per cent of control [14] | kinase still bound, per cent of control [15] | kinase still bound, per cent of control [16] | kinase still bound, per cent of control [17] | kinase still bound, per cent of control [19] | kinase still bound, per cent of control [21] | kinase still bound, per cent of control [22] | kinase still bound, per cent of control [23] | Compound | kinase still bound, per cent of control [20] | other results
16% | 100% | 100% | 100% | 100% | 100% | 100% | 100% | 100% | 100% | 100% | 100% | 100% | 100% | 100% | 100% | 100% | 100% | 100% | COc1cc(N2CCN(C)CC2)ccc1Nc1ncc2c(n1)N(C)c1ccccc1C(=O)N2C | 100% | kinase still bound, per cent of control [1]: 100%; kinase still bound, per cent of control [2]: 100%; kinase still bound, per cent of control [18]: 100%; kinase still bound, per cent of control [24]: 100%; kinase still bound, per cent of control [25]: 100%; kinase still bound, per cent of control [26]: 100%; kinase still bound, per cent of control [27]: 100%; kinase still bound, per cent of control [28]: 100%; kinase still bound, per cent of control [29]: 100%; kinase still bound, per cent of control [30]: 100%; kinase still bound, per cent of control [31]: 100%; kinase still bound, per cent of control [32]: 100%; kinase still bound, per cent of control [33]: 100%; kinase still bound, per cent of control [34]: 100%; kinase still bound, per cent of control [35]: 100%; kinase still bound, per cent of control [36]: 100%
100% | 26% | 100% | 100% | 100% | 100% | 100% | 100% | 100% | 100% | 100% | 5.6% | 100% | 100% | 100% | 100% | 100% | 100% | 100% | CCN(CC)CCCCNc1ncc2c(n1)N(C)C(=O)N(c1c(Cl)c(OC)cc(OC)c1Cl)C2 | 100% | kinase still bound, per cent of control [1]: 100%; kinase still bound, per cent of control [2]: 100%; kinase still bound, per cent of control [18]: 100%; kinase still bound, per cent of control [24]: 100%; kinase still bound, per cent of control [25]: 100%; kinase still bound, per cent of control [26]: 100%; kinase still bound, per cent of control [27]: 100%; kinase still bound, per cent of control [28]: 100%; kinase still bound, per cent of control [29]: 100%; kinase still bound, per cent of control [30]: 100%; kinase still bound, per cent of control [31]: 100%; kinase still bound, per cent of control [32]: 100%; kinase still bound, per cent of control [33]: 100%; kinase still bound, per cent of control [34]: 100%; kinase still bound, per cent of control [35]: 100%; kinase still bound, per cent of control [36]: 100%
100% | 100% | 100% | 100% | 100% | 100% | 100% | 100% | 100% | 100% | 100% | 100% | 100% | 100% | 100% | 100% | 100% | 100% | 100% | CS(=O)(=O)N1CCN(Cc2cc3nc(-c4cccc5[nH]ncc45)nc(N4CCOCC4)c3s2)CC1 | 100% | kinase still bound, per cent of control [1]: 100%; kinase still bound, per cent of control [2]: 100%; kinase still bound, per cent of control [24]: 100%; kinase still bound, per cent of control [25]: 100%; kinase still bound, per cent of control [26]: 100%; kinase still bound, per cent of control [27]: 100%; kinase still bound, per cent of control [28]: 100%; kinase still bound, per cent of control [29]: 100%; kinase still bound, per cent of control [30]: 100%; kinase still bound, per cent of control [31]: 100%; kinase still bound, per cent of control [32]: 100%; kinase still bound, per cent of control [33]: 100%; kinase still bound, per cent of control [34]: 100%; kinase still bound, per cent of control [35]: 100%; kinase still bound, per cent of control [36]: 100%

Compound | kinase still bound, per cent of control [3] | kinase still bound, per cent of control [4] | kinase still bound, per cent of control [5] | kinase still bound, per cent of control [6] | kinase still bound, per cent of control [7] | kinase still bound, per cent of control [8] | kinase still bound, per cent of control [9] | kinase still bound, per cent of control [10] | kinase still bound, per cent of control [11] | kinase still bound, per cent of control [12] | kinase still bound, per cent of control [13] | kinase still bound, per cent of control [14] | kinase still bound, per cent of control [15] | kinase still bound, per cent of control [16] | kinase still bound, per cent of control [17] | kinase still bound, per cent of control [19] | kinase still bound, per cent of control [21] | kinase still bound, per cent of control [22] | kinase still bound, per cent of control [23] | kinase still bound, per cent of control [20] | other results
O=C1NC(=O)/C(=C/c2ccc3nccc(-c4ccncc4)c3c2)S1 | 25% | 85% | 90% | 9.6% | 1.7% | 4.4% | 7.9% | 1.2% | 58% | 88% | 65% | 73% | 57% | 31% | 22% | 86% | 100% | 100% | 0.2% | 0.05% | kinase still bound, per cent of control [37]: 12%; kinase still bound, per cent of control [38]: 76%; kinase still bound, per cent of control [39]: 6.2%; kinase still bound, per cent of control [18]: 98%; kinase still bound, per cent of control [24]: 81%; kinase still bound, per cent of control [25]: 88%; kinase still bound, per cent of control [26]: 78%; kinase still bound, per cent of control [27]: 68%; kinase still bound, per cent of control [28]: 86%; kinase still bound, per cent of control [29]: 78%; kinase still bound, per cent of control [30]: 29%; kinase still bound, per cent of control [31]: 51%; kinase still bound, per cent of control [32]: 79%; kinase still bound, per cent of control [33]: 4.6%; kinase still bound, per cent of control [40]: 43%; kinase still bound, per cent of control [34]: 0.6%; kinase still bound, per cent of control [35]: 81%; kinase still bound, per cent of control [36]: 62%
